For experiment [1], the system named is HT-22 cells. Description: Recovery of ATP production capability reduced by amyloid beta (luciferin/luciferase). It counts as cell-based. To be noted: compound 5 μM, amyloid beta 5 μM, 7 hours, amyloid beta vehicle control without drug = 0%. Here is the method:
(§1) Meanwhile, the compound represented by Formula 1 according to the present invention is evaluated through a test to determine recovery of mitochondrial functions damaged by amyloid beta, as described in the following Test Example. After the test, the results are shown in terms of the percentages of mitochondrial function disorder caused by amyloid beta. The degree of mitochondrial function disorder caused by amyloid beta is taken as 0% and the normal condition in the absence of amyloid beta is shown as 100%.
To a transparent 96-well plate, HT-22 cells are inoculated in a number of 10,000 per well one day before the test, followed by treatment with each compound to a final concentration of 5 μM per well. The cells are cultured at 37° C. for 10 minutes. Particularly, for each drug, two wells are treated with amyloid beta (5 μM) and the other two wells are treated with the vehicle control (5 μM DMSO). After the treatment, the cells are cultured at 37° C. for 7 hours. The cells treated with each drug are washed twice with PBS, lysed with Triton X-100 (1% in TSBT buffer) and agitated at room temperature for 5 minutes. […] is used to determine the protein amount of each well, and the same amount of protein taken from each well is added to a white 96-well plate. Then, […] (Molecular Probe, USA) for ATP determination containing d-luciferin and luciferase is added thereto and emission peaks generated from each of the wells are determined. After the determination, the peaks are normalized by taking the vehicle control to which amyloid beta is added without treatment with any drug as 0%.

In experiment [2] the test system is HT-22 cells. Description: Improvement in mitochondrial membrane potential dropped by amyloid beta (JC-1 dye). It counts as cell-based. The note with it: compound 5 μM, amyloid beta 5 μM, 3 hours, JC-1 green:red ratio, amyloid beta damage = 0%, normal = 100%. Here is the method: as §1
To a transparent 96-well plate, HT-22 cells are inoculated in a number of 30,000 per well one day before the test. On the next day, JC-1 dye (Stratagen, USA) is diluted with Opti-MEM containing no phenol red to a concentration of 7.5 μM, and the resultant dilution is used to treat the cells for 1 hour and 15 minutes. The dyed cells are washed twice with phosphate buffer solution (PBS), followed by treatment with each compound to a final concentration of 5 μM per well. Then, the cells are cultured at 37° C. for 10 minutes. Particularly, for each drug, two wells are treated with amyloid beta (5 μM) and the other two wells are treated with the vehicle control (5 μM DMSO). Then, the cells are cultured at 37° C. for 3 hours. The fluorescence intensity of each well is read by using a fluorescence plate reader at 485/535 nm (green/J-monomer) and 560/595 nm (red/J-aggregate). Then, the ratio of green:red is calculated and the results are normalized by taking the change of the ratio between addition of amyloid beta and no-addition of amyloid beta in the vehicle control non-treated with drugs as 100%.

Results on 9 molecules are retold here after US20140114067A1, “BENZIMIDAZOLE DERIVATIVES AS MITOCHONDRIAL FUNCTION MODULATORS” (KOREA INSTITUTE OF SCIENCE AND TECHNOLOGY, priority 2012, published 2014).

As to `COc1ccc(OC)c(Cc2nc3ccccc3n2CC(=O)Nc2cc(C(C)(C)C)cc(C(C)(C)C)c2)c1` [Compound 17, N-(3,5-di-tert-butylphenyl)-2-(2-(2,5-dimethoxybenzyl)-1H-benzo[d]imidazol-1-yl)acetamide], the “ATP Production Capability Recovery (%) (5 μM)” value in the experiment on HT-22 cells [1] is on record as 46%. Moreover, the “Improvement in Membrane Potential (%) (5 μM)” value (“Improvement … (%) (5 μM)” for short) in the experiment with HT-22 cells [2] was 54%. For `COc1ccc(OC)c(Cc2nc3ccccc3n2CC(=O)Nc2cc(Cl)cc(Cl)c2)c1` [Compound 18, N-(3,5-dichlorophenyl)-2-(2-(2,5-dimethoxybenzyl)-1H-benzo[d]imidazol-1-yl)acetamide], in that order: 94% and 68%. In the case of `CN(C)CCCNC(=O)c1ccc(Cn2c(Cc3c(Cl)cccc3Cl)nc3ccccc32)cc1` [Compound 34, 4-((2-(2,6-dichlorobenzyl)-1H-benzo[d]imidazol-1-yl)methyl)-N-(3-(dimethylamino)propyl)benzamide], the “ATP Production Capability Recovery (%) (5 μM)” value in the experiment with HT-22 cells [1] is 85%. Besides, in the experiment with HT-22 cells [2], the “Improvement … (%) (5 μM)” value is recorded as 82%. As to `O=C(NCCCN1CCCCC1)c1ccc(Cn2c(Cc3c(Cl)cccc3Cl)nc3ccccc32)cc1` [Compound 37, 4-((2-(2,6-dichlorobenzyl)-1H-benzo[d]imidazol-1-yl)methyl)-N-(3-(piperidin-1-yl)propyl)benzamide], the “ATP Production Capability Recovery (%) (5 μM)” value in the experiment on HT-22 cells [1] is given as 64%. Further, the “Improvement … (%) (5 μM)” value with HT-22 cells [2] is 90%.

As for `CCN1CCCC1CNC(=O)c1ccc(Cn2c(Cc3c(Cl)cccc3Cl)nc3ccccc32)cc1` (centres unmarked) [Compound 32, 4-((2-(2,6-dichlorobenzyl)-1H-benzo[d]imidazol-1-yl)methyl)-N-((1-ethylpyrrolidin-2-yl)methyl)benzamide], in the experiment on HT-22 cells [1], the “ATP Production Capability Recovery (%) (5 μM)” value came out at 51%. Moreover, the “Improvement … (%) (5 μM)” value in the experiment on HT-22 cells [2] is 90%. The like results for `Cc1cccc(C(C)(C)C)c1NC(=O)Cn1c(-c2ccccc2)nc2ccccc21` [Compound 16, N-(2-tert-butyl-6-methylphenyl)-2-(2-phenyl-1H-benzo[d]imidazol-1-yl)acetamide] were, in that order, 55% and 65%. For the molecule `Cc1ccc(C(C)C)cc1NC(=O)Cn1c(Cc2c(Cl)cccc2Cl)nc2ccccc21` [Compound 23, 2-(2-(2,6-dichlorobenzyl)-1H-benzo[d]imidazol-1-yl)-N-(5-isopropyl-2-methylphenyl)acetamide], in the experiment on HT-22 cells [1], the “ATP Production Capability Recovery (%) (5 μM)” value was 95%. Besides, the “Improvement … (%) (5 μM)” value in the experiment on HT-22 cells [2] is listed as 74%. With `Cc1ccc(C(C)C)cc1NC(=O)Cn1c(-c2cc(Cl)ccc2Cl)nc2ccc(Cl)cc21` [Compound 25, 2-(6-chloro-2-(2,5-dichlorophenyl)-1H-benzo[d]imidazol-1-yl)-N-(5-isopropyl-2-methylphenyl)acetamide], the “ATP Production Capability Recovery (%) (5 μM)” value in the experiment on HT-22 cells [1] came to 69%. Also, the “Improvement … (%) (5 μM)” value in the experiment with HT-22 cells [2] is listed as 87%.

Take `CCN1CCCC1CNC(=O)c1ccc(CSc2nc3ccccc3n2CC(=O)Nc2cc(C(C)C)ccc2C)cc1` (centres unmarked) [Compound 43, N-((1-ethylpyrrolidin-2-yl)methyl)-4-((1-(2-(5-isopropyl-2-methylphenylamino)2-oxoethyl)-1H-benzo[d]imidazol-2-ylthio)methyl)benzamide]: the “Improvement … (%) (5 μM)” value in the experiment on HT-22 cells [2] worked out at 70%.
